In patent US20240299504A1, “COMPOSITIONS AND METHODS FOR TREATING ALZHEIMERS DISEASE” (priority 2023, published 2024):

Assays:
[1] = test system: osteocalcin; assay: Serum osteocalcin ELISA (bone formation marker); type: in vivo, mouse; settings: 6-MO female 5×FAD vs control mice; 50 μg/Kg s.c. intermittent
Procedure: (§1) Parathyroid hormone (human) was purchased from TOCRIS Bioscience (Cat #3011/1, Abingdon, United Kingdom). WT or 5×FAD mice (both male and female) were treated with PTH1-34 intermittently [once daily injection of hPTH1-34 (50 μg/Kg) or vehicle (0.9% sodium chloride) (as a control) by subcutaneous injection, starting at 2-MO, 5 days per week] as described previously. Mice were then subjected to behavioral tests and sacrificed for examinations of their bone and brain phenotypes at the indicated ages.
Submandibular blood collection was performed in anesthetized mice. A swift lancing motion is used to puncture the vessel. Blood sample (up to 200 μl) was collected with a pipette or other collection tube, allowed to stand at room temperature for 30 min and centrifuged for 15 min at 3000 rpm. Supernatant serum was aliquot and frozen at −80° C. until use. Mouse serum levels of osteocalcin (a marker for bone formation), PYD (pyridinoline, a marker for bone resorption), and PTH were measured using mouse osteocalcin Elisa kit (QUIDEL Corporation), METRA Serum PYD EIA kit (QUIDEL Corporation, San Diego, CA, USA), and mouse PTH Elisa kit (MyBioSource), respectively, following the manufacturers' instruction.

[2] = test system: 5×FAD mice; assay: Morris water maze (MWM); type: in vivo, mouse
Procedure: Parathyroid hormone (human) was purchased from TOCRIS Bioscience (Cat #3011/1, Abingdon, United Kingdom). […] Mice were then subjected to behavioral tests and sacrificed for examinations of their bone and brain phenotypes at the indicated ages. For Morris water maze (MWM), a circular water tank (diameter of 120 cm) fulfilled with water and a 10 cm platform were used. Non-toxic white powder paint was added to water to make the surface opaque to hide the escape platform. The maze was virtually divided into 4 quadrants, one of which contained the platform 1 cm below the water surface as an escape platform. Mice were trained for 5 days, four trials per day with 20 min intervals between trials and 60 s per trial to locate the hidden platform. Then mice were left on the platform for 15 s to help them remember the location. On the 6th day, the escape platform was removed and mice were placed in water at the point farthest from the platform and recorded for 60 s. The swimming track was recorded using a video tracking system, and the time spent in each platform quadrant and the number of platform crossings were quantified. All behavioral trials were recorded by use of an overhead camera and analyzed by Etho Vision software (Etho Vision, Noldus). Mice were assigned and data were quantified, in a double-blind method.

[3] = test system: IBA1 and GFAP; assay: Western blot of IBA1 and GFAP in cortex and hippocampus homogenates; type: in vivo, mouse; settings: 5×FAD brain homogenates (cortex and hippocampus), 6-MO female
Procedure: as §1
Total proteins from cortex, hippocampus, or cultured astrocytes were extracted using RIPA lysis buffer [50 mM Tris-HCl (pH7.5), 150 mM NaCl, 1 mM EDTA, 1% v/v NP-40, 0.1% SDS, 1% sodium deoxycholate supplemented with Protease Inhibitor Cocktail (Roche) and 1 mM PMSF] and analyzed by Western Blot. Lysates were cleared by centrifugation at 12,000 g for 15 min at 4° C. to remove debris and to obtain homogenates. Homogenates samples were resolved by SDS-PAGE (8˜15%) gels and then electroblotted onto nitrocellulose membranes (Cat #1620112, Bio-Rad Laboratories). […] After washing with TBST 3 times, antibody reactivity was detected by the Enhanced Chemiluminescence (ECL) detection system (Amersham Biosciences). Band density of proteins was normalized in relation to loading control and analyzed using NIH ImageJ software. […]

[4] = test system: primary cultured astrocytes from WT and 5×FAD pups; assay: PTH1-34 induced signaling in primary cultured astrocytes (Western blot); type: cell-based, mouse; settings: 100 ng/ml PTH1-34, time course
Procedure: Total proteins from cortex, hippocampus, or cultured astrocytes were extracted using RIPA lysis buffer [50 mM Tris-HCl (pH7.5), 150 mM NaCl, 1 mM EDTA, 1% v/v NP-40, 0.1% SDS, 1% sodium deoxycholate supplemented with Protease Inhibitor Cocktail (Roche) and 1 mM PMSF] and analyzed by Western Blot. Lysates were cleared by centrifugation at 12,000 g for 15 min at 4° C. to remove debris and to obtain homogenates. Homogenates samples were resolved by SDS-PAGE (8˜15%) gels and then electroblotted onto nitrocellulose membranes (Cat #1620112, Bio-Rad Laboratories). Membranes were blocked with 5% BSA (w/v) in TBS-Tween (50 mM Tris, 150 mM NaCl, pH7.6 and 0.1% v/v Tween-20) for 1 h and then probed with indicated primary antibodies overnight in 4° C. Membranes were washed with TBST 4 times and incubated with HRP-conjugated secondary antibodies (1:5000 in TBST) at room temperature for 1 h. After washing with TBST 3 times, antibody reactivity was detected by the Enhanced Chemiluminescence (ECL) detection system (Amersham Biosciences). Band density of proteins was normalized in relation to loading control and analyzed using NIH ImageJ software. Primary anti-bodies used were as follows: IBA1 (ab178846, rabbit), p16 (ab51243, rabbit), p53 (ab131442, rabbit), and anti-beta Actin (ab8226, mouse) from Abcam (Cambridge, MA, USA); GFAP (12389, rabbit), p-CREB (Ser133) (9198S, rabbit), p-AKT(S473) (4060P, rabbit), AKT (9272S, rabbit) and GAPDH (97166S, mouse) from Cell Signaling (Danvers, MA, USA); PTH1R (PA5-77,689, rabbit) from Invitrogen (Carlsbad, CA, USA); p-ERK1/2 (sc-136521, mouse) and ERK1/2 (sc-514302, mouse) from Santa Cruz Biotechnology (Santa Cruz, CA, USA).
Astrocyte culture was performed according to the standard protocol with some modifications as described in previous literature. In brief, the cerebral cortex and hippocampus of postnatal day 3 (P3) female pups were dissected under a stereomicroscope and placed in ice-cold calcium- and magnesium-free HBSS (Hanks Balanced Salt Solution). […]

[5] = test system: 5×FAD astrocytes; assay: RT-qPCR of cytokines and chemokines in cultured astrocytes; type: cell-based, mouse; settings: cultured 5×FAD astrocytes, 100 ng/ml, 24 h
Procedure: Total RNA was extracted from cortex, hippocampus, or cultured astrocytes using a TRizol reagent (Invitrogen, cat #15596-026, Carlsbad, CA, USA) as previously described. Purified RNA (1-5 μg) was used for cDNA synthesis with the Revert Aid First Strand cDNA Synthesis Kit (Thermo Scientific, cat #K1621, Waltham, MA, USA). The cDNA products were subjected to subsequent quantitative PCR (qPCR) using the QuantiFast SYBR Green PCR Kit (QIA-GEN, cat #204057, Hilden, Germany) with a qPCR System (StepOne Plus). Each sample was repeated at least 3 times, and the mRNA level was normalized to GAPDH using the 2^−ΔΔCt method.
Astrocyte culture was performed according to the standard protocol with some modifications as described in previous literature. In brief, the cerebral cortex and hippocampus of postnatal day 3 (P3) female pups were dissected under a stereomicroscope and placed in ice-cold calcium- and magnesium-free HBSS (Hanks Balanced Salt Solution). The tissues were digested with 2.5% trypsin-EDTA, 3 ml for each mouse, at 37° C. for 20 min with shaking slightly every 5 min. The digested tissue was blown into single-cell suspension, filtered through a […] filter mesh, pelleted at 900×g for 5 min, and resuspended in growth medium (DMEM plus 10% FBS), which was incubated at 37° C. with 5% CO2. […]

With CC[C@H](C)[C@H](NC(=O)[C@H](CCC(=O)O)NC(=O)[C@H](CO)NC(=O)[C@@H](NC(=O)[C@@H](N)CO)C(C)C)C(=O)N[C@@H](CCC(N)=O)C(=O)N[C@@H](CC(C)C)C(=O)N[C@@H](CCSC)C(=O)N[C@@H](Cc1cnc[nH]1)C(=O)N[C@@H](CC(N)=O)C(=O)N[C@@H](CC(C)C)C(=O)NCC(=O)N[C@@H](CCCCN)C(=O)N[C@@H](Cc1cnc[nH]1)C(=O)N[C@@H](CC(C)C)C(=O)N[C@@H](CC(N)=O)C(=O)N[C@@H](CO)C(=O)N[C@@H](CCSC)C(=O)N[C@@H](CCC(=O)O)C(=O)N[C@@H](CCCN=C(N)N)C(=O)N[C@H](C(=O)N[C@@H](CCC(=O)O)C(=O)N[C@@H](Cc1c[nH]c2ccccc12)C(=O)N[C@@H](CC(C)C)C(=O)N[C@@H](CCCN=C(N)N)C(=O)N[C@@H](CCCCN)C(=O)N[C@@H](CCCCN)C(=O)N[C@@H](CC(C)C)C(=O)N[C@@H](CCC(N)=O)C(=O)N[C@@H](CC(=O)O)C(=O)N[C@H](C(=O)N[C@@H](Cc1cnc[nH]1)C(=O)N[C@@H](CC(N)=O)C(=O)N[C@@H](Cc1ccccc1)C(=O)O)C(C)C)C(C)C [PTH1-34] the serum osteocalcin levels [1] was “increased serum osteocalcin levels more in 5×FAD mice than that in control mice”, the “MWM, latency to reach hidden platform during training” value ([2]; 5×FAD female mice ~5-MO vs 5×FAD Veh) was “faster learning of the hidden platform during MWM tests” and the “MWM, spatial memory (time in target quadrant, target zone crossovers)” value ([2]; 5×FAD female mice ~5-MO vs 5×FAD Veh, testing day) was “better spatial memory of the platform location”. The “MWM, spatial learning and memory” value ([2]; 5×FAD male mice ~5-MO vs Veh) was “Little to no improvement”, the “GFAP protein level (Western blot)” value [3] was “lower” and the “IBA1 protein level (Western blot)” value [3] was “lower”. For the same compound, the p-AKT protein level [4] was “little effect”, the p-CREB protein level [4] was “increases p-CREB” and the p-ERK protein level [4] was “little effect”. The “expression of cytokines or chemokines (TNF-α, TGF-β1, CCL5, GM-CSF, RANK)” value [5] was “Nearly all these factors (except GM CSF) were reduced”.
